Measurements from ChEMBL document CHEMBL2401697, “Indazoles as potential c-Met inhibitors: design, synthesis and molecular docking studies” (Eur J Med Chem, 2013).
pIC50: −log10 of the molar value.

system: MKN-45; experiment: Cytotoxicity against human MKN45 cells after 1 hr by Western blotting analysis; conditions: MKN-45, 1 h

Going from `Cn1cc(-c2ccc3cnn(Cc4ccc5ncccc5c4)c3c2)cn1` to `OCCn1cc(-c2ccc3cnn(Cc4ccc5ncccc5c4)c3c2)cn1`, the pIC50 rises from 4.89 to 5.17 (0.28 log units). The second is the more potent here.

`c1cnc2ccc(Cn3ncc4ccc(-c5cnn(CCOC6CCCCO6)c5)cc43)cc2c1` (stereo not given) and `c1cnc2ccc(Cn3cc4ccc(-c5cnn(CCOC6CCCCO6)c5)cc4n3)cc2c1` (stereo not given) are within 0.2 log units of each other in pIC50: 4.85 for the first, 4.92 for the second.

First: CC(C)(C)[Si](C)(C)O[C@H]1CC[C@H](n2cc(-c3ccc4cnn(Cc5ccc6ncccc6c5)c4c3)cn2)CC1
Second: CC(C)(C)[Si](C)(C)O[C@H]1CC[C@H](n2cc(-c3ccc4cn(Cc5ccc6ncccc6c5)nc4c3)cn2)CC1
The pIC50 of the first is 2.07 log units higher: 4.96 for the first, 2.89 for the second.

First: O[C@H]1CC[C@H](n2cc(-c3ccc4cnn(Cc5ccc6ncccc6c5)c4c3)cn2)CC1
Second: O[C@H]1CC[C@H](n2cc(-c3ccc4cn(Cc5ccc6ncccc6c5)nc4c3)cn2)CC1
The pIC50 of the first is 0.39 log units higher: 5.26 for the first, 4.87 for the second. The first is the more potent here.

`Cn1cc(-c2ccc3cn(Cc4ccc5ncccc5c4)nc3c2)cn1` and `OCCn1cc(-c2ccc3cn(Cc4ccc5ncccc5c4)nc3c2)cn1` are within 0.2 log units of each other in pIC50: 3.98 for the first, 3.96 for the second.
